Source: patent US20240148767A1, “THE USE OF EMPAGLIFLOZIN FOR THE TREATMENT OF ULCERATIVE COLITIS AND CROHN'S DISEASE” (The Governors of the University of Alberta, priority 2021, published 2024)
“Also recorded” adds a separate entry of the source.

Tests used:
murine macrophages = murine macrophages in vitro, cited from earlier work
SGLT2 over SGLT1 = conditions: cited from earlier work
[1] = system: IL-10−/− mice with established colitis; experiment: EMPA treatment of adult IL-10−/− mice with established colitis; type: in vivo, mouse
Description: Methods: In our colony, IL-10−/− mice begin to develop colitis between 8-12 weeks of age. […] Further, this dose was also chosen to match the active dose in humans by considering the differences in the metabolism and other pharmacokinetic parameters between mice and humans^55. The dose used in this study results in free plasma concentration of ˜20 nmol/L in mice^56 which is within the normal and safe range of that reported in humans^57-59. […] Adult IL-10^−/− mice with established colitis were treated with a daily gavage of EMPA (10 mg/kg; n=10) or vehicle (n=10) for 14 days. Disease activity was assessed by measurement of mouse weight, colonic weight and length, histological score, cytokine levels in colonic homogenate and lipocalin-2 levels in stool. To examine for possible direct effects of EMPA, colonic explants from wild-type and IL-10^−/− mice were incubated with increasing doses of EMPA (0.1-5 μM)±LPS for 2 hours and tissue levels of IL-1β and TNFα measured.
FIG. 4. Representative histological samples of colons. Colons were flushed with phosphate-buffered saline containing 0.1% gentamycin and immediately fixed in 10% v/v neutral buffered formalin. The fixed samples were paraffin-embedded, sectioned, and stained with hematoxylin and eosin. Disease scoring methods used were based on four scores: 1) epithelial hyperplasia (0-3), 2) enterocyte injury (0-3), 3) lymphocytes (0-2) and neutrophil infiltration (0-2) in the lamina propria. The total maximum histological score (10) is based on the sum of the individual scores. (A) control. (B) Empa.

[2] = healthy humans, dose matched to the human active dose; cited from earlier work
[3] = cited from earlier work
[4] = mice, 10 mg/kg dose; cited from earlier work
human THP-1 macrophages = conditions: pretreatment for 24 hours; cited from earlier work
[5] = EMPA 10 mg/kg daily gavage, 14 days, p=0.04

OC[C@H]1O[C@@H](c2ccc(Cl)c(Cc3ccc(O[C@H]4CCOC4)cc3)c2)[C@H](O)[C@@H](O)[C@@H]1O [EMPA, Empagliflozin]
expression of anti-inflammatory M2 markers (murine macrophages; AMPK-mediated mechanism): increased
LPS-induced ATP depletion (murine macrophages): prevented
LPS-induced TNFα and iNOS expression (murine macrophages): attenuated
selectivity for SGLT2 over SGLT1 (SGLT2 over SGLT1): ~2700 fold
lymphocytic infiltration into the lamina propria ([1]; EMPA 10 mg/kg daily gavage, 14 days): reduced
enterocyte injury (histological score) ([1]; EMPA 10 mg/kg daily gavage, 14 days, vs vehicle, p<0.01): no enterocyte injury; also recorded: significant decrease
total histological score ([1]; EMPA 10 mg/kg daily gavage, 14 days, vs vehicle, p=0.006): decreased
lamina propria neutrophils (histological score) ([1]; EMPA 10 mg/kg daily gavage, 14 days, vs vehicle, p=0.01): decreased
colonic weight to length ratio ([1]; EMPA 10 mg/kg daily gavage, 14 days, vs vehicle, p=0.019): decreased
fecal lipocalin-2 ([1]; EMPA 10 mg/kg daily gavage, 14 days, vs vehicle, p=0.03): decrease
colonic TNFα (real-time qPCR) ([1]; EMPA 10 mg/kg daily gavage, 14 days, p=0.02): significant decreases
colonic IFNγ (real-time qPCR) [1, 5]: significant decreases
colonic IL-1β (real-time qPCR) [1, 5]: significant decreases
body weight over the 14 days ([1]; EMPA 10 mg/kg daily gavage, vehicle treated mice continued to lose weight, p=0.04): maintained their weight
blood glucose levels in pilot experiments ([1]; EMPA 10 mg/kg dose, pilot experiments): no effect
blood glucose levels ([1]; EMPA-treated mice vs controls, 14 days): no significant differences
hypoglycemia [2]: does not cause hypoglycemia
time to peak levels ([3]; after a single dose): 1.5 h
bioavailability ([3]; humans): 78%
half-life ([3]; in humans): ~12 h
recovered in the feces as unchanged drug ([3]; in vivo): Approximately 40%
free plasma concentration [4]: ~20 nM
TNFα-stimulated chemokine release (human THP-1 macrophages): decreased
